What all share (type): cell-based
Assay [1] relates to HN31 (head and neck cancer) cell line. In words: Cell growth inhibition experiment (SRB), HN31. The note with it: Homo sapiens, incubated for 96 hours, read-out: IC50 (μM) of cancer cell lines HN31. On the procedure: (§1) The cell lines below were used in order to confirm the efficacy of the compounds synthesized in Examples 1 to 27. Human PANC-1 (pancreatic cancer) and MDA-MB-231 (breast cancer) cell lines were obtained from American Type Culture Collection (ATCC; Manassas, Va.); and HN31 (head and neck cancer) and UMRC2 (kidney cancer) cell lines were secured from the United States National Institutes of Health (Bethesda, Md.). The MDA-MB-231, UMRC2, HN31, and PANC-1 cell lines were cultured in Dulbecco modified Eagle medium (DMEM) containing FBS (10%), HEPES (10 mM), penicillin (100 U/mL), and streptomycin (100 μg/mL). All cell lines were cultured in an incubator (37° C., 5% CO2).
(§2) The 4-(aryl)-N-(2-alkoxythieno[3,2-b]pyrazin-3-yl)-piperazin-1-carboxamide derivative compounds synthesized according to Examples 1 to 27 of the present invention were treated with various human tissue-derived cancer cell lines cultured according to Experimental Example 1, and thus the inhibitory effect of the growth of human cancer cells was confirmed. The cell growth inhibition experiment was conducted using sulforhodamine B (SRB) technique (Skehan et al., J. National Cancer Institute, 1990, 82: 1107-1112). Specifically, each cell line was seeded in a 96-well plate at a density of 2 to 3×10^3 cells/well, cultured overnight, and then treated with the 4-(aryl)-N-(2-alkoxythieno[3,2-b]pyrazin-3-yl)-piperazin-1-carboxamide derivative compounds of the present invention. The experiment was repeated 3 times for each compound. Cells treated with each compound were additionally incubated for 96 hours, fixed with 10% trichloroacetic acid (TCA), and then left at 4° C. for 1 hour. The resultant was washed 3 times with distilled water. Thereafter, each cell was treated with 0.4% sulforhodamine B dissolved in 1% acetic acid, stained for 30 minutes, and then washed 4 times with 1% acetic acid. The resultant was dried in the air. After shaking the resultant in Tris solution (10 mM) for 5 minutes, the absorbance was measured at 530 nm using a Benchmark Plus Microplate reader (Bio-Rad Laboratories, Hercules, Calif.).
(§3) In order to convert the OD530 value to the number of viable cells per each well, the measured OD530 value was compared to the standard OD530-vs.-cell number curve of each cell line. The percent survival was calculated using the following formula: % survival=Nlive cells(test)/Nlive cells(control)×100
(§4) IC50 values were calculated by nonlinear regression analysis.

For a further assay, the system named is SK-OV-3. In words: Cell growth inhibition experiment (SRB), SK-OV-3. The note with it: Homo sapiens, incubated for 96 hours, read-out: IC50 (μM) of cancer cell lines SK-OV-3. Here is the method: as §2, §3, §4
Assay [2] concerns UMRC2 (kidney cancer) cell line. In words: Cell growth inhibition experiment (SRB), UMRC2. The note with it: Homo sapiens, incubated for 96 hours, read-out: IC50 (μM) of cancer cell lines UMRC2. On the procedure: as §1, §2, §3, §4
In a further assay the test system is HEK293. In words: Cell growth inhibition experiment (SRB), HEK293. To be noted: Homo sapiens, incubated for 96 hours, read-out: IC50 (μM) of cancer cell lines HEK293. On the procedure: as §2, §3, §4
For the next assay, the system named is A549. In words: Cell growth inhibition experiment (SRB), A549. The note with it: Homo sapiens, incubated for 96 hours, read-out: IC50 (μM) of cancer cell lines A549. On the procedure: as §2, §3, §4
Assay [3] has as its system MDA-MB-231 (breast cancer) cell line. In words: Cell growth inhibition experiment (SRB), MDA-MB-231. To be noted: Homo sapiens, incubated for 96 hours, read-out: IC50 (μM) of cancer cell lines MDA-MB-231. On the procedure:
as §1, §2, §3, §4

In another assay the test system is HUVEC. In words: Cell growth inhibition experiment (SRB), HUVEC. To be noted: Homo sapiens, incubated for 96 hours, read-out: IC50 (μM) of cancer cell lines HUVEC. Here is the method: as §2, §3, §4
The subject of the next assay is HT29. In words: Cell growth inhibition experiment (SRB), HT29. To be noted: Homo sapiens, HT-29, incubated for 96 hours, read-out: IC50 (μM) of cancer cell lines HT29. Here is the method: as §2, §3, §4
The subject of assay [4] is PANC-1 (pancreatic cancer) cell line. In words: Cell growth inhibition experiment (SRB), PANC-1. The note with it: Homo sapiens, incubated for 96 hours, read-out: IC50 (μM) of cancer cell lines PANC-1. Here is the method:
as §1, §2, §3, §4

We go through 13 compounds from US10059721B2, “Substituted thieno[3,2-b]pyrazines for inhibiting cancer cell proliferation and inducing cancer cell apoptosis” (DONGGUK UNIVERSITY INDUSTRY-ACADEMIC COOPERATION FOUNDATION, priority 2014, dated 2018).

The term IC50 denotes the concentration at which inhibition is half-maximal. With `COc1nc2ccsc2nc1NC(=O)N1CCN(c2cc(F)cc(C(F)(F)F)c2)CC1` [Example 27, 4-(3-fluoro-5-(trifluoromethyl)phenyl)-N-(2-methoxythieno[3,2-b]pyrazin-3-yl)piperazin-1-carboxamide], the IC50 (in assay [1]; with SK-OV-3; in [2]; with HEK293; in the assay on A549; in assay [3]) was below 2.5 µM throughout. The IC50 (with HUVEC; with HT29; in [4]) was below 2.5 µM in each case.

For the compound `COc1cc(OC(F)(F)F)cc(N2CCN(C(=O)Nc3nc4sccc4nc3OC)CC2)c1` [Example 25, 4-(3-methoxy-5-(trifluoromethoxy)phenyl)-N-(2-methoxythieno[3,2-b]pyrazin-3-yl)piperazin-1-carboxamide], the IC50 in assay [1] is 0.17 µM; in the assay with SK-OV-3 it was 0.63 µM; in assay [2], below 2.5 µM; in the assay with HEK293 it was 0.36 µM; in the assay on A549 it was 0.22 µM; in assay [3] it was 0.15 µM. For the same compound, the IC50 with HUVEC came to 0.13 µM; in the assay with HT29, 0.25 µM; in assay [4], 0.08 µM.

In the case of `Cc1cc(C)cc(N2CCN(C(=O)Nc3nc4sccc4nc3OC(C)C)CC2)c1` [Example 17, 4-(3,5-dimethylphenyl)-N-(2-isopropoxythieno[3,2-b]pyrazin-3-yl)piperazin-1-carboxamide], the IC50 (in assay [1]; in the assay on SK-OV-3; in [2]; in the assay on HEK293; in the assay on A549; in assay [3]) was below 2.5 µM in each case. Besides, the IC50 (in the assay on HUVEC; in the assay with HT29; in assay [4]) was below 2.5 µM throughout.

In the case of `COc1cc(F)cc(N2CCN(C(=O)Nc3nc4sccc4nc3OC)CC2)c1` [Example 22, 4-(3-fluoro-5-methoxyphenyl)-N-(2-methoxythieno[3,2-b]pyrazin-3-yl)piperazin-1-carboxamide], the IC50 was 0.45 µM in assay [1]; 1.36 µM in the assay on SK-OV-3; 0.21 µM in assay [2]; 1.12 µM in the assay on HEK293; 2.21 µM in the assay with A549; 0.52 µM in [3]. Also, the results for the 50% inhibitory concentration (IC50) (with HUVEC; with HT29; in [4]) were 1.36 µM, 1.12 µM and 0.63 µM, respectively.

As to `CCOc1nc2ccsc2nc1NC(=O)N1CCN(c2cc(F)cc(F)c2)CC1` [Example 15, 4-(3,5-difluorophenyl)-N-(2-ethoxythieno[3,2-b]pyrazin-3-yl)piperazin-1-carboxamide], the IC50 in assay [1] was 0.78 µM; with SK-OV-3 it was below 2.5 µM; in [2] it was 0.25 µM; in the assay on HEK293, below 2.5 µM; with A549, below 2.5 µM; in assay [3], 0.25 µM. Moreover, the IC50 with HUVEC is below 2.5 µM; in the assay with HT29, below 2.5 µM; in [4], 1.12 µM.

As for `COc1nc2ccsc2nc1NC(=O)N1CCN(c2cc(F)cc(F)c2)CC1` [Example 12, 4-(3,5-difluorophenyl)-N-(2-methoxythieno[3,2-b]pyrazin-3-yl)piperazin-1-carboxamide], the IC50 in assay [1] was 0.33 µM; with SK-OV-3 it was 0.29 µM; in assay [2], 0.04 µM; in the assay with HEK293 it was 0.55 µM; with A549, 1.28 µM; in assay [3], 0.05 µM. Moreover, the IC50 in the assay with HUVEC was found to be 0.07 µM; in the assay with HT29, 0.3 µM; in assay [4], 0.24 µM.

In the case of `COc1nc2ccsc2nc1NC(=O)N1CCN(c2cc(OC(F)(F)F)cc(C(F)(F)F)c2)CC1` [Example 20, N-(2-methoxythieno[3,2-b]pyrazin-3-yl)-4-(3-(trifluoromethoxy)-5-(trifluoromethyl)phenyl)piperazin-1-carboxamide], the IC50 in assay [1] was 0.36 µM; in the assay with SK-OV-3 it was 0.22 µM; in assay [2], below 2.5 µM; with HEK293, 0.12 µM; with A549, 0.15 µM; in assay [3], 0.25 µM. Besides, the IC50 was 0.21 µM with HUVEC, 0.62 µM in the assay with HT29 and 0.36 µM in [4].

Regarding `COc1nc2ccsc2nc1NC(=O)N1CCN(c2cc(C)cc(OC(F)(F)F)c2)CC1` [Example 19, N-(2-methoxythieno[3,2-b]pyrazin-3-yl)-4-(3-methyl-5-(trifluoromethoxy)phenyl)piperazin-1-carboxamide], the IC50 in [1] was 1.12 µM; in the assay with SK-OV-3, below 2.5 µM; in assay [2] it was 0.25 µM; with HEK293 it was 1.23 µM; in the assay with A549, 1.52 µM; in [3] it was below 2.5 µM. The IC50 in the assay on HUVEC was 0.68 µM; in the assay on HT29 it was 0.71 µM; in assay [4] it was 0.58 µM.

With `COc1nc2cc(Cl)sc2nc1NC(=O)N1CCN(c2cc(F)cc(F)c2)CC1` [Example 3, N-(6-chloro-2-methoxythieno[3,2-b]pyrazin-3-yl)-4-(3,5-difluorophenyl)piperazin-1-carboxamide], the IC50 in [1] was found to be 0.71 µM; in the assay with SK-OV-3, 0.85 µM; in [2], 0.06 µM; in the assay with HEK293, 0.87 µM; in the assay with A549, 2.11 µM; in assay [3], 0.04 µM. Besides, the IC50 in the assay with HUVEC worked out at 0.54 µM; in the assay with HT29, 0.53 µM; in assay [4], 0.56 µM.

Consider `CCOc1nc2ccsc2nc1NC(=O)N1CCN(c2cc(C)cc(C)c2)CC1` [Example 14, 4-(3,5-dimethylphenyl)-N-(2-ethoxythieno[3,2-b]pyrazin-3-yl)piperazin-1-carboxamide], for which the IC50 was 0.65 µM in [1]; below 2.5 µM in the assay on SK-OV-3; 0.57 µM in [2]; below 2.5 µM in the assay on HEK293; below 2.5 µM with A549; 0.34 µM in assay [3]. Besides, the IC50 (with HUVEC; in the assay with HT29; in assay [4]) was below 2.5 µM throughout.

In the case of `CCOc1nc2cc(Cl)sc2nc1NC(=O)N1CCN(c2cc(F)cc(F)c2)CC1` [Example 6, N-(6-chloro-2-ethoxythieno[3,2-b]pyrazin-3-yl)-4-(3,5-difluorophenyl)piperazin-1-carboxamide], the IC50 in [1] is 2.1 µM; in the assay on SK-OV-3, below 2.5 µM; in assay [2] it was 1.21 µM; in the assay on HEK293, below 2.5 µM; in the assay with A549, below 2.5 µM; in [3] it was 1.13 µM. Also, the IC50 with HUVEC is below 2.5 µM; with HT29, below 2.5 µM; in [4], 1.98 µM.

In the case of `COc1nc2ccsc2nc1NC(=O)N1CCN(c2cc(F)cc(OC(F)(F)F)c2)CC1` [Example 26, 4-(3-fluoro-5-(trifluoromethoxy)phenyl)-N-(2-methoxythieno[3,2-b]pyrazin-3-yl)piperazin-1-carboxamide], the IC50 (in assay [1]; in the assay with SK-OV-3; in assay [2]; with HEK293; in the assay with A549; in assay [3]) was below 2.5 µM each time. The IC50 (in the assay with HUVEC; with HT29; in assay [4]) was below 2.5 µM in each case.

`COc1cc(C)cc(N2CCN(C(=O)Nc3nc4sccc4nc3OC)CC2)c1` [Example 21, 4-(3-methoxy-5-methylphenyl)-N-(2-methoxythieno[3,2-b]pyrazin-3-yl)piperazin-1-carboxamide]: the concentration for half-maximal inhibition (IC50) in assay [1] was below 2.5 µM; with SK-OV-3, 1.85 µM; in [2], 1.74 µM; in the assay on HEK293, 1.25 µM; with A549, 1.63 µM; in assay [3], 2.21 µM. In addition, the values for the IC50 (in the assay with HUVEC; in the assay on HT29; in [4]) were below 2.5 µM, 1.85 µM and 2.12 µM, respectively.
